One assay deals with p110β/p85 (Homo sapiens, UniProt P42338). The assay can be described thus: Inhibition of isolated enzyme, PI 3-kinase p110β/p85. Type of assay: biochemical. The following applies: recombinant enzyme, 100 μM ATP, average of two experiments. As to the method: (§1) Compounds were evaluated for their ability to inhibit the Class I PI 3-kinase enzymes p110δ/p85, p110α/p85 and p110β/p85. Reaction mixtures comprising 0.1 μg of recombinant enzyme, 10 μg of L-α-phosphatidylinositol, the compound (DMSO only or DMSO+compound to a final concentration of 1%), 2× Lipid Kinase Buffer (40 mM Tris-HCl pH 7.4, 200 mM NaCl, 1 mM EDTA) were activated by the addition of an ATP mix (5 mM MgCl2, 100 μM ATP, 0.1 μL [γ^33P]ATP). […] Firstly, 200 μL of chloroform/methanol (1:1) was added, the biphasic reactions mixed and centrifuged briefly, and the inorganic phase was removed and discarded.
Sequence of p110β/p85 (P42338 whole entry, species assumed): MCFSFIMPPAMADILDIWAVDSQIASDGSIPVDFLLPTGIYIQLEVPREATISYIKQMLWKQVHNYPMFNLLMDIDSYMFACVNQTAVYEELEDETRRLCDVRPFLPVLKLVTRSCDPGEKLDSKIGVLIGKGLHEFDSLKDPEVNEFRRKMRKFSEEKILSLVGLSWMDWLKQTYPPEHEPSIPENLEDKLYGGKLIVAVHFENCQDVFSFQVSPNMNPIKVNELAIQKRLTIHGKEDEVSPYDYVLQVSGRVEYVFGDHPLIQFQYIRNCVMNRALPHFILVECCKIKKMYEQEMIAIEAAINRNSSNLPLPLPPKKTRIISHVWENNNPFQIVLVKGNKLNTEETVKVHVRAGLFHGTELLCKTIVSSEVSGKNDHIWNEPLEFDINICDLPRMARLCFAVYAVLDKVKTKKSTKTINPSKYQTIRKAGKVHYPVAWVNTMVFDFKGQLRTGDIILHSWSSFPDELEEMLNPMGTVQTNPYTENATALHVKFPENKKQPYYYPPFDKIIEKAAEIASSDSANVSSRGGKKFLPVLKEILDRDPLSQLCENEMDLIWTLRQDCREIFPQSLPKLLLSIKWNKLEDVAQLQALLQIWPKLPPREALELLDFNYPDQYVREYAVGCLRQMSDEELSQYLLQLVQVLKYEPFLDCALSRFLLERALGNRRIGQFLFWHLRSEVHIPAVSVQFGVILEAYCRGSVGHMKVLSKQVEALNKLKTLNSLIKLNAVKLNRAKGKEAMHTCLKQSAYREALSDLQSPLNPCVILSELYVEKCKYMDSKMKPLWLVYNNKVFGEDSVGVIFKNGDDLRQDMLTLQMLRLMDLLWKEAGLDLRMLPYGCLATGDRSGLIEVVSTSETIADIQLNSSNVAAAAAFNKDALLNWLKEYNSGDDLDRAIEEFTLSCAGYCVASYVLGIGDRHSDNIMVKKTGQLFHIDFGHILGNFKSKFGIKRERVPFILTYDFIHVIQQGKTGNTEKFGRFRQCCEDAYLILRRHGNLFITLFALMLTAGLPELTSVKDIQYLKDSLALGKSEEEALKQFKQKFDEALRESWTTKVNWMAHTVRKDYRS
Sequence of p110β/p85 (P27986 whole entry partner, species assumed): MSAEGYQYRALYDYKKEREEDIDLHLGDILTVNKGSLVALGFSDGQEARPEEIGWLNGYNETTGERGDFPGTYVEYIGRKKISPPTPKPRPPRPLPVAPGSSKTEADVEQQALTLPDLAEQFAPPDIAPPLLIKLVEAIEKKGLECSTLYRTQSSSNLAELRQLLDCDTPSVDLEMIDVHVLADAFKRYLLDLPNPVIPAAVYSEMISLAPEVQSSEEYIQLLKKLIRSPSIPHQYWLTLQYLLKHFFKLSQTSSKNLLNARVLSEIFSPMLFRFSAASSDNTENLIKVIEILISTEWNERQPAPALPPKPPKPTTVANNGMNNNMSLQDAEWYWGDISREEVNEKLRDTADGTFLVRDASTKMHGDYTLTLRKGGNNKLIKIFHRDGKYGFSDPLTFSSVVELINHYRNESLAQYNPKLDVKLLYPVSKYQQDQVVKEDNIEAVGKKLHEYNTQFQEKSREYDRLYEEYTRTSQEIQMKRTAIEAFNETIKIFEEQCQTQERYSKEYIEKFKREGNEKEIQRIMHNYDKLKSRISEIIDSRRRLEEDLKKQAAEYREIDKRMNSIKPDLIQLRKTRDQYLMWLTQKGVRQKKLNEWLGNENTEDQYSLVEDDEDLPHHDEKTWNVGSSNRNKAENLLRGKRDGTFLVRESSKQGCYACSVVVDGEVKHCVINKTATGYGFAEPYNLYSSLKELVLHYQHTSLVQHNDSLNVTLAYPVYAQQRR

In another assay the target is p110δ/p85 (Homo sapiens, UniProt O00329). Put plainly: Inhibition of isolated enzyme, PI 3-kinase p110δ/p85. The following applies: recombinant enzyme, 100 μM ATP, average of two experiments. Type of assay: biochemical. The procedure:
as §1

Another assay relates to NZB5. The assay can be described thus: Cellular growth inhibition (3H-thymidine), NZB5. Type of assay: cell-based. The conditions noted are these: Homo sapiens, five days, 3H-thymidine incorporation, maximum 20 μM. The procedure:
(§2) The compounds were evaluated against two early passage human cell lines NZB5 and NZOV9, whose development and culture have been described [Marshall et al, Oncol. Res. 2004, 14, 297]. The cells were grown in ITS medium (α-modified minimal essential medium supplemented insulin, transferrin, selenite and 5% fetal bovine serum) and grown on 96-well tissue culture plates under an atmosphere of 5% O2, 5% CO2 and 90% N2. Individual wells contained 500-1000 cells (depending on the growth rate) in a volume of 150 μL. Compounds were added at 10-fold concentration steps to a maximum of 20 μM and plates were incubated for five days, with ^3H-thymidine being added over the last 6 h. Cells were harvested and incorporated radioactivity measured. Duplicate samples were analyzed for each compound dose with multiple control samples. Data were fitted by a least-squares method to an exponential of the form y=y0+ae^−bx, where y is the radioactivity (corrected for background and normalized to 100% of the control) x is the radiation dose, and y0, a and b are variables, and the IC50 value defined as the compound concentration reducing ^3H-thymidine levels by 50%.

The next assay has as its system NZOV9. The assay can be described thus: Cellular growth inhibition (3H-thymidine), NZOV9. Type of assay: cell-based. The following applies: Homo sapiens, five days, 3H-thymidine incorporation, maximum 20 μM. As to the method:
as §2
(Uptake of a labelled nucleoside into DNA is a usual measure of proliferation.)

A further assay concerns the target p110α/p85 (Homo sapiens, UniProt P42336). The assay can be described thus: Inhibition of isolated enzyme, PI 3-kinase p110α/p85.
[1] abbreviates: read-out: IC50 (nM) p110α, recombinant enzyme, 100 μM ATP, average of two experiments.

Structures are written as SMILES. Where a name gives a salt, the structure may show the parent alone. Read-outs that look alike come from different tables or passages of the source.

The source of these data is patent US20100226881A1, “PYRAZOLO[1,5-a]PYRIDINES AND THEIR USE IN CANCER THERAPY” (Auckland Uniservices Limited, priority 2007, published 2010).

Sequence of p110α/p85 (P42336 whole entry, species assumed): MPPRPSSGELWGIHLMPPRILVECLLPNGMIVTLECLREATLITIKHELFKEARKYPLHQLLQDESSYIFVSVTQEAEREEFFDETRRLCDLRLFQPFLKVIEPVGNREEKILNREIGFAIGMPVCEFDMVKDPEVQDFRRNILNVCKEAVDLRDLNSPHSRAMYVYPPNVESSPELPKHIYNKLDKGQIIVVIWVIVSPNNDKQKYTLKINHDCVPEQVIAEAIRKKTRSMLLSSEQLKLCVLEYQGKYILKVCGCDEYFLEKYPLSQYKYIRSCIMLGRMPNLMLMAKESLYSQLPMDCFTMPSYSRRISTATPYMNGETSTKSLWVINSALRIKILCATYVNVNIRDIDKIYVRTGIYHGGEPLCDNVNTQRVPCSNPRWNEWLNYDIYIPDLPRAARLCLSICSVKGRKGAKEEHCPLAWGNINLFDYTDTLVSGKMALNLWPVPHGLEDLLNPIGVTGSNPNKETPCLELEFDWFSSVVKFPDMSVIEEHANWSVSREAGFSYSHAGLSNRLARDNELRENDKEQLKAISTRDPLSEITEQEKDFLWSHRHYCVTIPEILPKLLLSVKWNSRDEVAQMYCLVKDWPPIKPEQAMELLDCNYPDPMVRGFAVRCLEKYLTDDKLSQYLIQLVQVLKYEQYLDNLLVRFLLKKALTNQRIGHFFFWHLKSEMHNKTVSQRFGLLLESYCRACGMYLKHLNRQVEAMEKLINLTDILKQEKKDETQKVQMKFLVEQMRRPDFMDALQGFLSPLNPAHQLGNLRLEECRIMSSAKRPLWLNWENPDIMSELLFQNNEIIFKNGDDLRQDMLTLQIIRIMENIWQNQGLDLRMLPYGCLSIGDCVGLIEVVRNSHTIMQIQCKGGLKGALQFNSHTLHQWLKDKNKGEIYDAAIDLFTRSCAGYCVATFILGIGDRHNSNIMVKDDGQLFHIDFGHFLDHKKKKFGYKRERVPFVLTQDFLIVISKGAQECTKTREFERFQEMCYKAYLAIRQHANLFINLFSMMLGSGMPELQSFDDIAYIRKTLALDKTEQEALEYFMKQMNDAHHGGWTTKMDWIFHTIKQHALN
Sequence of p110α/p85 (P27986 whole entry partner, species assumed): as the sequence (P27986 whole entry partner, species assumed) above
Sequence of p110δ/p85 (O00329 whole entry, species assumed): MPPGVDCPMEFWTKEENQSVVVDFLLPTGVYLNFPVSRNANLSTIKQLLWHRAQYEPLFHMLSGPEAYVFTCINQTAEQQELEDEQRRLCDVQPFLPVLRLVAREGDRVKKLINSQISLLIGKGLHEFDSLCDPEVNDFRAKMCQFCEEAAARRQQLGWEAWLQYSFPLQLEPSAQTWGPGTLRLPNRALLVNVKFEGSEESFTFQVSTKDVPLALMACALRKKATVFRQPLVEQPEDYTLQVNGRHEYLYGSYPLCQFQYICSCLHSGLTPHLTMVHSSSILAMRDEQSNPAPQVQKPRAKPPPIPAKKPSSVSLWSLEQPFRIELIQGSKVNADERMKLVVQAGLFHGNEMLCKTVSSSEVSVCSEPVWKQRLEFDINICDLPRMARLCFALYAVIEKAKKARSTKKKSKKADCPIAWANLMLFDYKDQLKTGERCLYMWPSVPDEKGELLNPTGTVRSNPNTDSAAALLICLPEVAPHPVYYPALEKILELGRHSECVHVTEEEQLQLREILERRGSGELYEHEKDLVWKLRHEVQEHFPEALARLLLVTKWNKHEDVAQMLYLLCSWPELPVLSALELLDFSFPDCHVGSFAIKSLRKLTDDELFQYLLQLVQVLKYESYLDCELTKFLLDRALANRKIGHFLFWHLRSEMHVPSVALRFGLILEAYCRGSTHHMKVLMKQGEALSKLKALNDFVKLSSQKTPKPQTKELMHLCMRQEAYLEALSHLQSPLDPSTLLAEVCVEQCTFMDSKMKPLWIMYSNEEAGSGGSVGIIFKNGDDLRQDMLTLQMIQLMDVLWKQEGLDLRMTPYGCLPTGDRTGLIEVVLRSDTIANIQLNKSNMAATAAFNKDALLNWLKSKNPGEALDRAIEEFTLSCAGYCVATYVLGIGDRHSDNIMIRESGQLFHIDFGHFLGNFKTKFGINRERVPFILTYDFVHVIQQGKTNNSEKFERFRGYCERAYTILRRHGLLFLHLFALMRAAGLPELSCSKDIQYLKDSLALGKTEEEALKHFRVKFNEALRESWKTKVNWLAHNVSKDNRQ
Sequence of p110δ/p85 (P27986 whole entry partner, species assumed): as the sequence (P27986 whole entry partner, species assumed) above

On to `CN(C)c1ccc([N+](=O)[O-])cc1S(=O)(=O)N(C)N=Cc1cnn2ccc(Br)cc12` [E73, N′-((5-Bromopyrazolo[1,5-a]pyridin-3-yl)methylene)-2-(dimethylamino)-N-methyl-5-nitrobenzenesulfonohydrazide], for which the IC50 (in general, the midpoint of a concentration-inhibition curve) came to 35 nM on p110β/p85; 210 nM at p110δ/p85; 0.11 µM in the assay on NZB5; 0.31 µM with NZOV9; 3.4 nM on p110α/p85 (setting [1]).
On the same counts, the results for `CN(N=Cc1cnn2ccc(Br)cc12)S(=O)(=O)c1cc([N+](=O)[O-])ccc1OCCN1CCOCC1` [E74, N′-((5-Bromopyrazolo[1,5-a]pyridin-3-yl)methylene)-N-methyl-2-(2-morpholinoethoxy)-5-nitrobenzenesulfonohydrazide hydrochloride] are 2900 nM, 350 nM, 0.27 µM, 0.55 µM and 32 nM.
For `CN(C)CCN(C)c1ccc(C#N)cc1S(=O)(=O)N(C)N=Cc1cnn2ccc(C#N)cc12` [E77, 5-Cyano-N′-((5-cyanopyrazolo[1,5-a]pyridin-3-yl)methylene)-2-((2-(dimethylamino)ethyl)(methyl)amino)-N-methylbenzenesulfonohydrazide hydro-chloride] the same measures were 360 nM, 380 nM, 0.06 µM, 0.05 µM and 10 nM.
For `CN(N=Cc1cnn2ccc(C#N)cc12)S(=O)(=O)c1cc([N+](=O)[O-])cnc1Cl` [E80, 2-Chloro-N′-((5-cyanopyrazolo[1,5-a]pyridin-3-yl)methylene)-N-methyl-5-nitropyridine-3-sulfonohydrazide] the same measures were 5800 nM, 230 nM, 7.9 µM, 3.4 µM and 23 nM.
`CN(N=Cc1cnn2ccc(C#N)cc12)C(=O)c1cccc([N+](=O)[O-])c1` [E82, N′-((5-Cyanopyrazolo[1,5-a]pyridin-3-yl)methylene)-N-methyl-3-nitro-benzohydrazide]: the IC50 on p110β/p85 came out at 72 nM; on p110δ/p85, 19 nM; with NZB5, 1.8 µM; with NZOV9, 6 µM; on p110α/p85 (setting [1]), 21 nM.
For `Cc1ccc([N+](=O)[O-])cc1CN(C)N=Cc1cnn2ccc(C#N)cc12` [E84, 3-((2-Methyl-2-(2-methyl-5-nitrobenzyl)hydrazono)methyl)pyrazolo[1,5-a]pyridine-5-carbonitrile] the same measures were 48 nM, 39 nM, 1.7 µM, 1.9 µM and 41 nM.
For `Cc1ccc([N+](=O)[O-])cc1S(=O)(=O)n1ccc(-c2cnn3ccc(Br)cc23)n1` [E88, 5-bromo-3-(1-(2-methyl-5-nitrophenylsulfonyl)-1H-pyrazol-3-yl)pyrazolo[1,5-a]pyridine] the same measures were above 1000 nM, 1450 nM, 0.08 µM, 0.07 µM and 250 nM.
On the same counts, the results for `O=[N+]([O-])c1cccc(S(=O)(=O)c2nc(-c3cnn4ccc(Br)cc34)cs2)c1` [E90, 4-(5-Bromopyrazolo[1,5-a]pyridin-3-yl)-2-(3-nitrophenylsulfonyl)thiazole] are 5500 nM, 250 nM, 0.18 µM, 0.61 µM and 790 nM.
Turning to `Cc1ccc([N+](=O)[O-])cc1Sc1nnc(-c2cnn3ccc(Br)cc23)o1` [E91, 2-(5-Bromopyrazolo[1,5-a]pyridin-3-yl)-5-(2-methyl-5-nitrophenylthio)-1,3,4-oxadiazole], the IC50 at p110β/p85 is above 1000 nM; on p110δ/p85, 120 nM; in the assay on NZB5, 0.73 µM; with NZOV9 it was 2.8 µM; against p110α/p85, 84 nM.
